Data as given in patent publication US20220288095A1, “SIALIC ACID FOR USE IN THE TREATMENT OF PSORIASIS” (LifeScience AS, priority 2019, published 2022).

Test system: psoriasis
Assay: Treatment of an adult with psoriasis with NGNA
Type: in vivo, human
Details: compared to previous treatments
Protocol: Example 2. An adult with psoriasis was treated with 5 mg NGNA per day administered sublingually. Administration caused symptoms associated with the psoriasis including redness, scaling spots, itching, burning and soreness to be reduced as compared to previous treatments.
Example 3. An adult with psoriasis was treated with 5 g NGNA per day administered orally. Administration caused symptoms associated with the psoriasis including redness, scaling spots, itching, burning and soreness to be reduced as compared to previous treatments.
Example 4. An adult with psoriasis was treated with NGNA supplied in a hot water bath.
Example 5. An adult with psoriasis was treated with a dermal spray solution of NGNA in water.

Measured: symptoms associated with the psoriasis including redness, scaling spots, itching, burning and soreness

O=C(CO)N[C@H]1[C@H]([C@H](O)[C@H](O)CO)O[C@](O)(C(=O)O)C[C@@H]1O [NGNA, n-glycolylneuraminic acid]
reduced: 5 mg NGNA per day sublingually | 5 g NGNA per day orally | NGNA supplied in a hot water bath | dermal spray solution of NGNA in water
